According to ChEMBL document CHEMBL3817822, “Design and synthesis of pyridine-pyrazole-sulfonate derivatives as potential anti-HBV agents” (Medchemcomm, 2016):
pIC50: −log10 of the molar value.

Assays:
[1] = Cytotoxicity against human HepG2(2.2.15) cells assessed as reduction in cell viability after 72 hrs by MTS assay; type: cell-based; settings: for CC50 at 72 h: HepG2(2.2.15) cells, read-out: TC50; for Activity: hepg2 2.2.15, 72 h
Hepatitis B virus [2] = assay: Antiviral activity against HBV infected in human HepG2(2.2.15) cells assessed as inhibition of HBsAg secretion by enzyme immunoassay; type: functional, organism-based
[3] = Selectivity index, ratio of TC50 for human HepG2(2.2.15) cells to IC50 for HBV infected in human HepG2(2.2.15) cells assessed as inhibition of HBsAg secretion
Hepatitis B virus [4] = assay: Antiviral activity against HBV infected in human HepG2(2.2.15) cells assessed as inhibition of HBeAg secretion by enzyme immunoassay; type: functional, organism-based
[5] = Selectivity index, ratio of TC50 for human HepG2(2.2.15) cells to IC50 for HBV infected in human HepG2(2.2.15) cells assessed as inhibition of HBeAg secretion
Hepatitis B virus [6] = assay: Antiviral activity against HBV infected in human HepG2(2.2.15) cells assessed as inhibition of viral DNA replication after 48 hrs by SYBR Green based RT-PCR method; type: functional, organism-based; settings: HepG2 2.2.15, 48 h
[7] = Selectivity index, ratio of TC50 for human HepG2(2.2.15) cells to IC50 for HBV infected in human HepG2(2.2.15) cells assessed as inhibition of viral DNA replication

| Structure (SMILES) | pIC50 (Hepatitis B virus [2]) | pIC50 (Hepatitis B virus [4]) | pIC50 (Hepatitis B virus [6]) | CC50 at 72 h [1] [µM] | Activity [1] | Selectivity Index [3] | Selectivity Index [5] | Selectivity Index [7] |
| --- | --- | --- | --- | --- | --- | --- | --- | --- |
| O=c1cc(-c2ccccn2)[nH][nH]1 | 2.86 | 2.86 | 2.87 | 1060 | Dose-dependent effect | 0.77 | 0.78 | 0.79 |
| CS(=O)(=O)Oc1cc(-c2ccccn2)[nH]n1 | 3.54 | – | – | 1060 | Dose-dependent effect | 3.68 | – | – |
| O=S(=O)(Oc1cc(-c2ccccn2)[nH]n1)c1ccccc1 | 3.86 | 4.16 | 4.18 | 135 | Dose-dependent effect | 0.99 | 1.94 | 2.07 |
| O=[N+]([O-])c1ccc(S(=O)(=O)Oc2cc(-c3ccccn3)[nH]n2)cc1 | 3.90 | – | – | 787 | Dose-dependent effect | 6.28 | – | – |
| O=c1cc(CSc2ccccn2)[nH][nH]1 | 3.09 | 3.23 | 3.28 | 1120 | Dose-dependent effect | 1.37 | 1.89 | 2.13 |
| O=S(=O)(Oc1cc(-c2ccccn2)[nH]n1)c1ccc(Br)cc1 | 3.68 | – | – | 809 | Dose-dependent effect | 3.85 | – | – |
| O=S(=O)(Oc1cc(CSc2ccccn2)[nH]n1)c1ccc(Br)cc1 | 3.94 | 5.04 | 5.22 | 52.4 | Dose-dependent effect | 0.46 | 5.69 | 8.63 |
| O=S(=O)(Oc1cc(CSc2ccccn2)[nH]n1)c1ccccc1 | 3.82 | 4.69 | 4.72 | 103 | Dose-dependent effect | 0.68 | 5.09 | 5.46 |
| Nc1ccn([C@H]2CS[C@@H](CO)O2)c(=O)n1 | – | – | 5.68 | 352 | – | – | – | – |
| CS(=O)(=O)Oc1cc(CSc2ccccn2)[nH]n1 | 3.79 | 3.17 | 3.13 | 830 | Dose-dependent effect | 5.17 | 1.22 | 1.12 |

Second part, led by results:

| pIC50 (Hepatitis B virus [2]) | pIC50 (Hepatitis B virus [4]) | pIC50 (Hepatitis B virus [6]) | Structure (SMILES) | CC50 at 72 h [1] [µM] | Activity [1] | Selectivity Index [3] | Selectivity Index [5] | Selectivity Index [7] |
| --- | --- | --- | --- | --- | --- | --- | --- | --- |
| 5.13 | 4.92 | 5.04 | O=[N+]([O-])c1ccccc1S(=O)(=O)Oc1cc(-c2ccccn2)[nH]n1 | 326 | Dose-dependent effect | 43.54 | 27.11 | 35.46 |
| 4.81 | 4.64 | 4.65 | COc1ccc(S(=O)(=O)Oc2cc(-c3ccccn3)[nH]n2)cc1 | 87.5 | Dose-dependent effect | 5.69 | 3.79 | 3.95 |
| 4.84 | 4.35 | 4.42 | COc1ccc(S(=O)(=O)Oc2cc(CSc3ccccn3)[nH]n2)cc1 | 90.2 | Dose-dependent effect | 6.21 | 2.02 | 2.37 |
| 4.64 | 4.49 | 4.50 | Cc1ccc(S(=O)(=O)Oc2cc(-c3ccccn3)[nH]n2)cc1 | 217 | Dose-dependent effect | 9.35 | 6.71 | 6.92 |
| 4.58 | 3.60 | 3.70 | O=S(=O)(Oc1cc(CSc2ccccn2)[nH]n1)c1ccc(F)cc1 | 116 | Dose-dependent effect | 4.44 | 0.46 | 0.59 |
| 4.34 | 4.08 | 4.04 | O=S(=O)(Oc1cc(-c2ccccn2)[nH]n1)c1ccc(F)cc1 | 254 | Dose-dependent effect | 5.53 | 3.06 | 2.76 |
| 4.70 | 4.71 | 4.84 | Cc1ccc(S(=O)(=O)Oc2cc(CSc3ccccn3)[nH]n2)cc1 | 86.4 | Dose-dependent effect | 4.36 | 4.45 | 6.04 |
| 5.32 | 5.22 | 5.25 | O=[N+]([O-])c1ccc(S(=O)(=O)Oc2cc(CSc3ccccn3)[nH]n2)cc1 | 38.2 | Dose-dependent effect | 7.97 | 6.41 | 6.88 |
| 5.20 | 5.00 | 5.20 | O=[N+]([O-])c1ccccc1S(=O)(=O)Oc1cc(CSc2ccccn2)[nH]n1 | 66.2 | Dose-dependent effect | 10.6 | 6.68 | 10.51 |
